Results as given in patent publication US9051310B2, “Nicotinamide derivative or salt thereof” (FUJIFILM Corporation, priority 2011, dated 2015).

Key:
[1] = biological target: T1, glutathione S-transferase (GST)-linked full-length human Syk protein (Homo sapiens, UniProt P43405); assay: Syk enzyme assay; assay type: biochemical; conditions: 0.83 nM Syk, time-resolved fluorescence; read-out: IC50 of Syk-inhibitory activity
T1 construct: glutathione S-transferase (GST)-linked full-length human Syk protein; purchased Carna Biosciences; host or cells: Baculovirus expression system
In short: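 Phosphotyrosine on a biotin-peptide substrate (0.5 μM) was read by time-resolved fluorescence at 615 and 665 nm with Eu-anti-pTyr antibody and APC-streptavidin after 1 h EDTA stop.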

[2] = tested on: THP-1 cells (TNFα secretion on human IgG-coated plate); assay: TNFα generation assay; assay type: cell-based; conditions: IFN-γ differentiated THP-1 cells, 7 hours, AlphaLISA, read-out: IC50 of TNFα generation inhibitory activity
In short: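 THP-1 cells were differentiated with 10 ng/ml IFN-γ for 2 days, then preincubated with compound for 30 min at room temperature. They were then plated at 5×10^4 cells/well on plates coated with human IgG (10 μg/ml). TNFα secreted over 7 h of culture was quantified by AlphaLISA.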

[3] = tested on: mouse thrombocytopenia induced by anti-mouse CD41 antibody; assay: Mouse thrombocytopenia model; assay type: in vivo; conditions: Platelet, female BALB/c mice, 50 mg/kg 1 hour before anti-CD41 antibody, blood sampling 4 hours after antibody, read-out: improvement of platelet count compared with the control group
Method: Test compounds were tested to examine effects upon mouse thrombocytopenia. Each test compound (50 mg/kg) was administered to 5- to 7-week-old female BALB/c mice (Charles River Laboratories Japan, Inc.). One hour thereafter, an anti-mouse CD41 ([…]) antibody (SCB) (1 μg (200 μl)) was intravenously administered to each mouse so as to induce thrombocytopenia. Four hours after administration of the anti-CD41 antibody, blood sampling from the postcava was performed. The platelet count was determined using an automated hematology analyzer.

[4] = tested on: 191 types of kinases excluding Syk; assay: Selectivity of kinase inhibition (Profiler Pro kits); assay type: biochemical; conditions: test compound 100 nM; 191 kinases excluding Syk
Method: The concentrations of test compounds were adjusted to 100 nM. The test compounds were examined using Profiler Pro kits (Caliper) in terms of activity against each of 191 types of kinases excluding Syk.

[5] = tested on: rat type II collagen arthritis; assay: Rat type II collagen-induced arthritis; assay type: in vivo; conditions: female Lewis rats, oral administration 10 mg/kg/day, Day 7 to Day 20 once daily, Student's t-test
Method: The compounds were tested to examine effects upon rat type II collagen arthritis. Equivalent volumes of 0.05 mol/L acetic acid in which a 3 mg/mL bovine type II collagen solution (Collagen Gijutsu Kenshu-Kai) had been dissolved and Freund's incomplete adjuvant (Wako Pure Chemical Industries, Ltd.) were mixed to prepare an emulsion. A portion of the emulsion (0.5 ml) was intradermally injected into the tail bases of 6- to 8-week-old female Lewis rats (Charles River Laboratories Japan, Inc.) (Day 0). Each rat was subjected to the same treatment on Day 7 after the initial inoculation so as to induce arthritis. Each test compound was orally administered from Day 7 to Day 20 once daily. At a given time during the period from Day 7 to Day 21, the rat hindlimb volume was determined using a plethysmometer (UGO BASILE), and the result was designated as an arthritis index.

[6] = tested on: THP-1 cells (phagocytosis of opsonized Escherichia coli); assay: Antibody-dependent phagocytosis assay; assay type: cell-based; conditions: Homo sapiens; IFNγ differentiated THP-1 cells, opsonized pHrodo Escherichia coli, 3 hours; read-out: IC50 upon phagocytosis inhibition
In short: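 THP-1 cells were differentiated to macrophage-like cells with 10 ng/ml IFNγ for 2 days, then treated with test compound for 30 min at room temperature. pHrodo-labeled E. coli opsonized with anti-E. coli antibody were added for 3 h at 37° C. Phagocytosis by viable (Calcein AM-positive) cells was quantified by imaging.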

IC50 [1]: 10 to 50 nM | IC50 [2]: 130 to 200 nM | number of kinases other than Syk with kinase inhibitory rate of 75% or more [4]: 8 types of kinases | IC50 [6]: 1000 to 3000 nM
Compound: C[C@H](N)[C@H](Nc1nc(Nc2cnc(N3CCOCC3)c(F)c2)c(C(N)=O)cc1F)C1CC1 [Example 2-76, 6-(((1R,2S)-2-amino-1-cyclopropylpropyl)amino)-5-fluoro-2-((5-fluoro-6-morpholinopyridin-3-yl)amino)nicotinamide]
change in vivo at 50 mg/kg [3]: ≥ 50% | hindlimb swelling on Day 20 compared with the control group [5]: significantly inhibited hindlimb swelling
